Laboratory results published in patent US20220289708A1, “SUBSTITUTED N-PHENYL URACILS, SALTS THEREOF AND THEIR USE AS HERBICIDAL AGENTS” (Bayer Aktiengesellschaft, priority 2019, published 2022).

What was measured:
Assay type in all cases: in vivo
Abutilon theophrasti = assay: Post-emergence herbicidal action; conditions: application rate 20 g/ha, rated visually after about 3 weeks vs untreated controls
Description: (§1) a. Post-Emergence Herbicidal Action and Crop Plant Compatibility Seeds of monocotyledonous and dicotyledonous weeds and crop plants were placed in sandy loam in plastic or wood-fiber pots, covered with soil and cultivated in a greenhouse under controlled growth conditions. 2 to 3 weeks after sowing, the test plants were treated at the one-leaf stage. The compounds of the invention, formulated in the form of wettable powders (WP) or as emulsion concentrates (EC), were then sprayed onto the green parts of the plants as aqueous suspension or emulsion with addition of 0.5% additive at a water application rate of 600 l/ha (converted). After the test plants had been kept in the greenhouse under optimum growth conditions for about 3 weeks, the activity of the preparations was rated visually in comparison to untreated controls. For example, 100% activity=the plants have died, 0% activity=like control plants. Tables A1 to A15 below show the effects of selected compounds of the general formula (I) according to Tables I.1 to I.36 on various harmful plants and at an application rate corresponding to 20 g/ha and less, which were obtained by the experimental procedure mentioned above.

Alopecurus myosuroides = assay: Post-emergence herbicidal action; conditions: application rate 20 g/ha, rated visually after about 3 weeks vs untreated controls
Description: as §1

Amaranthus retroflexus = assay: Post-emergence herbicidal action; conditions: application rate 20 g/ha, rated visually after about 3 weeks vs untreated controls
Description: as §1

Avena fatua = assay: Post-emergence herbicidal action; conditions: application rate 20 g/ha, rated visually after about 3 weeks vs untreated controls
Description: as §1

Digitaria sanguinalis = assay: Post-emergence herbicidal action; conditions: application rate 20 g/ha, rated visually after about 3 weeks vs untreated controls
Description: as §1

Echinochloa crus-galli = assay: Post-emergence herbicidal action; conditions: application rate 20 g/ha, rated visually after about 3 weeks vs untreated controls
Description: as §1

Lolium rigidum = assay: Post-emergence herbicidal action; conditions: application rate 20 g/ha, rated visually after about 3 weeks vs untreated controls
Description: as §1

Matricaria inodora = assay: Post-emergence herbicidal action; conditions: application rate 20 g/ha, rated visually after about 3 weeks vs untreated controls
Description: as §1

Pharbitis purpurea = assay: Post-emergence herbicidal action; conditions: application rate 20 g/ha, rated visually after about 3 weeks vs untreated controls
Description: as §1

Setaria viridis = assay: Post-emergence herbicidal action; conditions: application rate 20 g/ha, rated visually after about 3 weeks vs untreated controls
Description: as §1

Veronica persica = assay: Post-emergence herbicidal action; conditions: application rate 20 g/ha
Description: as §1

Viola tricolor = assay: Post-emergence herbicidal action; conditions: application rate 20 g/ha
Description: as §1

Oryza sativa = assay: Post-emergence crop plant compatibility
Description: a. Post-Emergence Herbicidal Action and Crop Plant Compatibility
as §1, with “Seeds” for “a. Post-Emergence Herbicidal Action and Crop Plant Compatibility Seeds”, “plants.” for “plants. Tables A1 to A15 below show the effects of selected compounds of the general formula (I) according to Tables I.1 to I.36 on various harmful plants and at an application rate corresponding to 20 g/ha and less, which were obtained by the experimental procedure mentioned above.”
Tables A16 to A19 below show the crop plant compatibilities of selected compounds of the general formula (I) according to Tables I.1 to I.36 at an application rate corresponding to 5 g/ha or 20 g/ha, which were obtained in experiments according to the experimental procedure mentioned above. Here, the observed effects on selected crop plants are stated in comparison to the untreated controls (values in %).

Polygonum convolvulus = assay: Post-emergence herbicidal action; conditions: application rate 20 g/ha
Description: as §1

| Compound | Abutilon theophrasti (efficacy in %) (Abutilon theophrasti) | Alopecurus myosuroides (efficacy in %) (Alopecurus myosuroides) | Amaranthus retroflexus (efficacy in %) (Amaranthus retroflexus) | Avena fatua (efficacy in %) (Avena fatua) | Digitaria sanguinalis (efficacy in %) (Digitaria sanguinalis) | Echinochloa crus-galli (efficacy in %) (Echinochloa crus-galli) | Lolium rigidum (efficacy in %) (Lolium rigidum) | Matricaria inodora (efficacy in %) (Matricaria inodora) | Pharbitis purpurea (efficacy in %) (Pharbitis purpurea) | Setaria viridis (efficacy in %) (Setaria viridis) | Veronica persica (efficacy in %) (Veronica persica) | Viola tricolor (efficacy in %) (Viola tricolor) | Oryza sativa (efficacy in %) (Oryza sativa; application rate 5 g/ha) | Polygonum convolvulus (efficacy in %) (Polygonum convolvulus) | Oryza sativa (efficacy in %) (Oryza sativa; application rate 20 g/ha) |
| --- | --- | --- | --- | --- | --- | --- | --- | --- | --- | --- | --- | --- | --- | --- | --- |
| Cn1c(C(F)(F)F)cc(=O)n(-c2cc(Sc3cccnc3OCC(=O)OC3COC3)c(Cl)cc2F)c1=O [I.1-115] | 100% | 100% | 100% | 80% | 100% | 100% | 80% | 100% | 100% | 100% | 100% | 100% | 20% |  |  |
| Cn1c(C(F)(F)F)cc(=O)n(-c2cc(Sc3cccnc3OCC(=O)OCC#N)c(Cl)cc2F)c1=O [I.1-176] | 100% | 100% | 100% | 90% | 100% | 100% | 80% | 100% | 100% | 100% | 100% | 100% | 20% |  |  |
| Cn1c(C(F)(F)F)cc(=O)n(-c2cc(Sc3cccnc3OCC(=O)OCc3ccccn3)c(Cl)cc2F)c1=O [I.1-286] | 100% | 100% | 100% | 80% |  | 100% | 80% | 100% | 100% |  | 100% | 100% | 0% |  |  |
| CCOC(COC(=O)COc1ncccc1Oc1cc(-n2c(=O)cc(C(F)(F)F)n(C)c2=O)c(F)cc1[N+](=O)[O-])OCC [I.14-422] | 100% | 100% | 100% | 90% | 100% | 100% | 80% | 90% | 100% | 100% | 100% | 100% |  | 100% | 20% |
| Cn1c(C(F)(F)F)cc(=O)n(-c2cc(Oc3cccnc3OCC(=O)OC3COC3)c(Br)cc2F)c1=O [I.16-115] | 100% | 100% | 100% | 80% | 100% | 100% | 100% | 100% | 100% | 100% | 100% | 100% | 20% | 100% |  |
| CCS(=O)(=O)NCCOC(=O)COc1ncccc1Oc1cc(-n2c(=O)cc(C(F)(F)F)n(C)c2=O)c(F)cc1Br [I.16-421] | 100% | 100% | 100% | 100% | 100% | 100% | 90% | 100% | 100% | 100% | 100% | 100% | 20% | 100% |  |
| COCCOC(=O)COc1ncc(F)cc1Sc1cc(-n2c(=O)cc(C(F)(F)F)n(C)c2=O)c(F)cc1Cl [I.31-1] | 100% | 90% | 100% |  | 100% | 100% | 80% | 100% | 100% | 100% | 100% | 100% |  |  | 20% |
| COCCOCCOC(=O)COc1ncc(F)cc1Sc1cc(-n2c(=O)cc(C(F)(F)F)n(C)c2=O)c(F)cc1Cl [I.31-23, 2-(2-Methoxyethoxy)ethyl {[3-({5-[3-methyl-2,6-dioxo-4-(trifluoromethyl)-3,6-dihydropyrimidin-1(2H)-yl]-2-chloro-4-fluorophenyl}sulfanyl)-5-fluoropyridin-2-yl]oxy}acetate] | 100% | 90% | 100% |  | 100% | 100% |  | 100% | 100% | 100% | 100% | 100% |  |  | 20% |
| Cn1c(C(F)(F)F)cc(=O)n(-c2cc(Oc3cc(F)cnc3OCC(=O)OCc3ccccn3)c(Cl)cc2F)c1=O [I.36-286] | 100% | 100% | 100% | 80% | 100% | 100% | 80% | 90% | 100% | 100% | 100% | 100% |  | 100% |  |
